Experimental findings from patent US6410567B1, “Pesticide containing a photosensitizer and an attractant” (priority 1996, dated 2002) are described below.

Holding throughout (type): in vivo
In series [1] the test system is Ceratitis capitata. In words: Comparative studies on the photoinsecticidal activity of different sensitizing compounds (percent survival after irradiation). Particulars: for Percent survival, 0 h after 1 h irradiation / Percent survival, 1 h after 1 h irradiation / Percent survival, 24 h after 1 h irradiation: 6 μmoles/ml photosensitizer for 24 h, 1220 μE s^−1 m^−2 for 1 h; for Percent survival, 0 h after 1 h irradiation: 0 h after irradiation; for Percent survival, 1 h after 1 h irradiation: 1 h after irradiation; for Percent survival, 24 h after 1 h irradiation: 24 h after irradiation; for Percent survival, pre-irradiation: Ceratitis capitata fed 24 h with sucrose solution containing 6 μmoles/ml photosensitizer, before irradiation. As to the method: 31. Comparative Studies on the Photosecticidal Activity of Different Sensitizing Compounds
Target: Ceratitis capitata
Light source: Sunlight-simulating halogen lamp
Light intensity (fluence rate): 1220 μE s^−1 m^−2
Groups of at least 20 flies were fed for 24 h with 3 ml of an aqueous solution containing sucrose (attractive) and 6 μmoles/ml of the photosensitizer. […]

Series [2] concerns flies. In words: Mortality investigations: control flies given only HP without irradiation. To be noted: flies fed HP in the food, no irradiation. As to the method: An appropriate number of flies (25 for each experiment) was removed from a population and starved for 48 hours. Then, depending on the individual experimental conditions, the flies were provided with food, the control animals being fed with sugar and water while the test group received hematoporphyrin (HP; shown below) which had been added to the food. The animals were then used for the individual experiments; for example, HP was extracted or the flies were irradiated, etc.
3. Mortality Investigations
Control flies and flies fed with HP were irradiated with light sources (HQIT 400W/D OSRAM) whose emitted light is similar to sunlight. The number of survivors was plotted against the irradiation time. The HP concentration, the flux rate and the exposure time (or the total light dose) were investigated as parameters in respect of their effect on the mortality.

The test system of series [3] is flies. In words: Effect of the attractant buminal on the intake of HP (extraction, spectrofluorimetric analysis). Particulars: HP 8 μmol/ml offered for 6 h, in combination with buminal vs buminal-free food. As to the method: 19. Effect of the Attractant Buminal on the Intake and Action of HP
Groups of 10 flies each were fed for two days with an aqueous solution comprising sucrose and were then fed with compositions which contained the following ingredients:
1. HP (8 μmol/ml)+buminal (1 ml)
3. HP (8 μmol/ml)+1 ml sucrose (1.4 mg/ml)
4. HP (8 μmol/ml)+buminal (0.5 ml)+sucrose (0.5 ml)
The animals were able to take in the compositions indicated above for 6 hours. Thereafter the flies were subjected to an extraction in order to extract the HP taken in, which was quantified by a spectrofluorimetric analysis. From these experiments it is clearly evident that buminal is capable of sharply increasing the intake of HP by the flies, the flies taking in about four times the quantity of photosensitizer when the latter is offered in combination with buminal, in comparison to the buminal-free food. The addition of buminal therefore strengthens the action of HP.

“Al(III)-phtalocyanine tetrasulphonate (sodium salt)”: in series [1], the “Percent survival, 0 h after 1 h irradiation” value (“Percent survival, 0 h” below) was determined as 100%; the “Percent survival, 1 h after 1 h irradiation” value (“Percent survival, 1 h” below) stood at 95%; the “Percent survival, 24 h after 1 h irradiation” value (“Percent survival, 24 h” below) was 90%; the “Percent survival, pre-irradiation” value stood at 100%.
As for `CC1=C(CCC(=O)O)c2cc3[nH]c(cc4nc(cc5[nH]c(cc1n2)c(C)c5C(C)O)C(C)=C4C(C)O)c(C)c3CCC(=O)O` (stereo not drawn) [I, hematoporphyrin], in series [1], the “Percent survival, 0 h” value came out at 60%; the “Percent survival, 1 h” value is recorded as 25%; the “Percent survival, 24 h” value was 5%; the “Percent survival, pre-irradiation” value stood at 100%. Also, the “Mortality or toxic effect without irradiation” value in series [2] is “In none of the experiments was mortality or a toxic effect observed”. Further, in series [3], the “Quantity of photosensitizer taken in with buminal in comparison to the buminal-free food” value is listed as “about four”.
For `O=C([O-])c1cccc2sc3ccccc3c(=O)c12.[Na+]` [VII, thioxanthene-9-one-1-carbonate (sodium salt)], in series [1], the “Percent survival, 0 h” value was found to be 100%; the “Percent survival, 1 h” value amounted to 100%; the “Percent survival, 24 h” value is recorded as 90%; the “Percent survival, pre-irradiation” value worked out at 100%.
In the case of `O=C1OC2(c3cc(I)c(O)c(I)c3Oc3c2cc(I)c(O)c3I)c2c(Cl)c(Cl)c(Cl)c(Cl)c21` [IV, Rose bengal (tetrachloro, tetraiodo-fluorescein)], in series [1], the “Percent survival, 0 h” value came to 85%; the “Percent survival, 1 h” value was 58%; the “Percent survival, 24 h” value is 30%; the “Percent survival, pre-irradiation” value turned out to be 100%.
The corresponding values for `Nc1c(S(=O)(=O)[O-])ccc2c1C(=O)c1ccccc1C2=O.[Na+]` [V, 1-amino-anthraquinone-2-sulphonate (sodium salt)] are 100%, 77%, 60% and 100%.
Consider `C[n+]1ccc(-c2c3nc(c(-c4cc[n+](C)cc4)c4ccc([nH]4)c(-c4cc[n+](C)cc4)c4nc(c(-c5ccccc5)c5ccc2[nH]5)C=C4)C=C3)cc1` [II, meso-tri(4N-methyl-pyridyl)-monophenyl-porphine], for which, in series [1], the “Percent survival, 0 h” value is 10%; the “Percent survival, 1 h” value is 0%; the “Percent survival, 24 h” value amounted to 0%; the “Percent survival, pre-irradiation” value was 100%.
Take `COc1ccc(NC(N)=S)cc1` [VI, 1-(4-methoxyphenyl)-2-thiourea]: in series [1], the “Percent survival, 0 h” value was determined as 100%; the “Percent survival, 1 h” value was 95%; the “Percent survival, 24 h” value stood at 90%; the “Percent survival, pre-irradiation” value worked out at 100%.
